The record followed here is doi:10.1101/2025.03.04.641560v1 (biorxiv, 2025).

For orientation: Km means the substrate concentration at which the rate is half of its maximum.

Read-outs that look alike come from different tables or passages of the source.

Assay [1] relates to Td2F2. The following applies: 10 mM HEPES pH 7.4; Mutant A.
The subject of assay [2] is Td2F2. Kind of assay: fluorescence plate reader, Michaelis-Menten fit. It counts as biochemical, uncultured bacterium. The following applies: 10 mM HEPES pH 7.4.
In assay [3] the target is β-galactosidase (LacZ) (Escherichia coli, UniProt P00722). In words: fluorescence plate reader, Michaelis-Menten fit. The class given is biochemical. The following applies: 10 mM HEPES pH 7.4.
Chain of β-galactosidase (LacZ) (P00722 2-1024): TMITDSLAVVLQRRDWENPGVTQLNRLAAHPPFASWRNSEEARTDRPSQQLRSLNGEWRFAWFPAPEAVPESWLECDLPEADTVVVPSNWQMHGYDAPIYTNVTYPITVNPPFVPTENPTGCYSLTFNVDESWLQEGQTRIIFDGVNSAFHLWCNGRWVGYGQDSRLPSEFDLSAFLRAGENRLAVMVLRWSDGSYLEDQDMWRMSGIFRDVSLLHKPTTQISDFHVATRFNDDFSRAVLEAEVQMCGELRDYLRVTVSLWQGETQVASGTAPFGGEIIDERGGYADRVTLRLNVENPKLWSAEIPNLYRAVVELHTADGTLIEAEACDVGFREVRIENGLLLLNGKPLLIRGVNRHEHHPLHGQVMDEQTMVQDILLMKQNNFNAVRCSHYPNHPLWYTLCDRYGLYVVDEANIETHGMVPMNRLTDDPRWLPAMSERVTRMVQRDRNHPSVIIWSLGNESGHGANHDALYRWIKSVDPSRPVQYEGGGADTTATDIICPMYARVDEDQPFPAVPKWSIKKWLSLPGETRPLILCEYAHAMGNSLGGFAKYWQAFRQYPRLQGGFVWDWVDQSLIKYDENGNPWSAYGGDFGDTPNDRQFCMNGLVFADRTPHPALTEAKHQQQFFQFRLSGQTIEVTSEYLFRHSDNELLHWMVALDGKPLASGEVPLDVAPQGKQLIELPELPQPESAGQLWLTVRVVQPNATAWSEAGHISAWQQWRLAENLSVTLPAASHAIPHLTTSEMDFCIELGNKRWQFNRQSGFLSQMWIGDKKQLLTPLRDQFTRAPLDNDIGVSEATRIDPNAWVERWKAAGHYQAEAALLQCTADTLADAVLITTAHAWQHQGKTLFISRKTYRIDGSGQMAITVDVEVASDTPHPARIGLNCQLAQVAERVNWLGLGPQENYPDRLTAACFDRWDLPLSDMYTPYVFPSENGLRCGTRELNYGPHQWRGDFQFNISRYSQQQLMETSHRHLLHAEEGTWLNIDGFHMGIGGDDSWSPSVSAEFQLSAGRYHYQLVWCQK

Regarding `C[C@H]1O[C@@H](Oc2ccc3c(c2)Oc2cc(NCC(F)(F)F)ccc2C32OCc3ccccc32)[C@H](O)[C@@H](O)[C@H]1O` (stereo partly drawn) [HMRef-β-D-Fuc, HMRef-β-D-fucose], the Km in assay [1] amounted to 3.7 µM; in assay [2], 190 µM. Turning to `OC[C@H]1O[C@@H](Oc2ccc3c(c2)Oc2cc(NCC(F)(F)F)ccc2C32OCc3ccccc32)[C@H](O)[C@@H](O)[C@H]1O` (stereo partly drawn) [HMRef-β-D-Gal], the Km in assay [3] came to 73 µM.
